Source: patent publication US20230087388A1, “INHIBITORS OF HUMAN DEUBIQUITINASES FOR THE TREATMENT OF CORONAVIRAL INFECTIONS” (Immunologik GmbH, priority 2020, published 2023)
Entries after “also recorded” stand apart in the source; their conditions may differ.

Key:
SARS-CoV-2 [1] = format: cell-based
[2] = biological target: T1, papain-like protease (PLpro) of SARS-CoV-2 (Severe acute respiratory syndrome coronavirus 2, UniProt P0DTD1); format: biochemical
T1 construct: They are the papain-like proteases (PLpro), encoded within nsp3; purchased R&D biosystems E-611-050

SARS-CoV-2 [3] = experiment: qRT-PCR of viral RNA from SARS-CoV-2 infected Vero-B4 cells; format: cell-based; conditions: 10 μM, 3 d treatment, 3 independent experiments; compared with 10 μM chloroquine or hydroxychloroquine
Protocol: Therefore, virus-containing samples were quantified by real-time PCR AgPath-ID One-Step RT-PCR Kit from Ambion (Cat: 4387424) allowing reverse transcription, cDNA synthesis and PCR amplification in a single step. Samples were analyzed by 7500 software v2.3 (applied Bioscience). PCR primers were used according to 44: RdRp_fwd: 5′-GTG-ARA-TGG-TCA-TGT-GTG-GCG-G-3′ and RdRp_rev 5′-CAR-ATG-TTA-AAS-ACA-CTA-TTA-GCA-TA-C-3′. Probe was 5′-CAG-GTG-GAA-/ZEN/CCT-CAT-CAG-GAG-ATG-C-3′ (Label: FAM/IBFQ Iowa Black FQ). As positive control a specific target for E and RdRp gen of SARS-CoV2 was used and made by Integrated DNA Technologies. Control: 5′-TAA-TAC-GAC-TCA-CTA-TAG-GGT-ATT-GAG-TGA-AAT-GGT-CAT-GTG-TGG-CGG-TTC-ACT-ATA-TGT-TAA-ACC-AGG-TGG-AAC-CTC-ATC-AGG-AGA-TGC-CAC-AAC-TGC-TTA-TGC-TAA-TAG-TGT-TTT-TAA-CAT-TTG-GAA-GAG- ACA-GGT-ACG-TTA-ATA-GTT-AAT-AGC-GTA-CTT-CTT-TTT-CTT-GCT-TTC-GTG-GTA-TTC-TTG-CTA-GTT-ACA-CTA-GCC-ATC-CTT-ACT-GCG-CTT-CGA-TTG-TGT-GCG-TAC-TGC-TGC-AAT-ATT-GTT-3′. The annealing temperature was 60° C. The experimental procedure containing the infection, treatment and isolation of virions was the same as described for the Western blot analysis. The evaluation of qRT-PCR analysis clearly confirmed the results of the Western blot experiments.

Vero-B4 cells = conditions: WST assay, 3 days

SMILES | reduction in the release of SARS-CoV-2 proteins (densitometric analysis) (SARS-CoV-2 [1]; 1.25 μM P5091, 3 d treatment, 3 independent experiments, untreated = 100%) [%] | release of SARS-CoV-2 proteins / replication of SARS-CoV-2 (SARS-CoV-2 [1]; 5 μM P5091, infected Vero-B4 cells, 3 d treatment) | release of viral proteins in Western Blot (SARS-CoV-2 [1]; different concentrations of P5091, 3 d treatment) | inhibitory effect on SARS-CoV-2 PLpro activity ([2]; 20 nM recombinant PLpro, ISG15-AMC substrate, 30 min pretreatment, 120 min readout, PR-619 1.25-10 μM, P5091 1.5-6 μM) | reduction of activity of PLpro from SARS-CoV-2 (AUC) ([2]; 6 μM P5091, n=3) [%] | inhibition of replication of SARS-CoV-2 in infected Vero-B4 cells (SARS-CoV-2 [1]; 10 μM PR-619) | SARS-CoV-2 proteins in Western Blot, virus and cell fraction (SARS-CoV-2 [1]; 10 μM PR-619, infected Vero-B4 cells, 3 dpi) | generation of SARS-CoV-2 proteins, densitometric evaluation (nucleoprotein virus fraction, spike S1 cell fraction) (SARS-CoV-2 [1]; 10 μM, 3 d treatment, 3 independent experiments, compared with 10 μM chloroquine or hydroxychloroquine) | amount of viral RNA (qRT-PCR) (SARS-CoV-2 [3]) | concentration at which a clear toxic effect started (Vero-B4 cells)
CC(=O)c1cc([N+](=O)[O-])c(Sc2cccc(Cl)c2Cl)s1 [P5091, 1-[5-[(2,3-dichlorophenyl)thio]-4-nitro-2-thienyl]-ethanone] | 90 | complete block; also recorded: nearly completely inhibit | dose-dependent decrease | dose dependent reduction; also recorded: direct inhibitory action | 80 |  |  |  |  | 
N#CSc1cc(SC#N)c(N)nc1N [PR-619, 2,6-diaminopyridine-3,5-bis(thiocyanate)] |  |  |  |  |  | broadly inhibit | clear reduction | significantly inhibited | significantly reduced | over 20 μM
